Values joined by “and” are separate entries in the source; they are usually repeats but may differ in a detail not shown here. Equal entries are not always repeated.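 Each compound was tested at five concentrations against cells in 96-well plates for 48 hours. At the GI50, growth is halved.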 Active and inactive are the calls of the source. No stated cut-off is given here; in the data, active = GI50 up to about 1.1 µM and inactive = higher.
How the values were obtained:
Assay in all cases: inhibition of tumour cell growth, NCI panel, 48 h
M14 = tested on: M14
ACHN = tested on: ACHN
CAKI-1 = tested on: CAKI-1
UACC-257 = tested on: UACC-257
SN12C = tested on: SN12C
OVCAR-3 = tested on: OVCAR-3
DU-145 = tested on: DU-145
OVCAR-5 = tested on: OVCAR-5
LOX IMVI = tested on: LOX IMVI
HCT-116 = tested on: HCT-116
RPMI-8226 = tested on: RPMI-8226
SK-MEL-5 = tested on: SK-MEL-5
T47D = tested on: T47D
OVCAR-8 = tested on: OVCAR-8
NCI-H226 = tested on: NCI-H226
UO-31 = tested on: UO-31
HCC 2998 = tested on: HCC 2998
Hs-578T = tested on: Hs-578T
KM12 = tested on: KM12
MOLT-4 = tested on: MOLT-4
K562 = tested on: K562
SF-539 = tested on: SF-539
SK-MEL-28 = tested on: SK-MEL-28
HCT-15 = tested on: HCT-15
A549 = tested on: A549
Malme-3M = tested on: Malme-3M
MDA-MB-231 = tested on: MDA-MB-231
MDA-N = tested on: MDA-N
MCF7 = tested on: MCF7
NCI-H460 = tested on: NCI-H460
SR = tested on: SR
SW-620 = tested on: SW-620
PC-3 = tested on: PC-3
HT-29 = tested on: HT-29
OVCAR-4 = tested on: OVCAR-4
HL-60 = tested on: HL-60
NCI-H522 = tested on: NCI-H522
SK-MEL-2 = tested on: SK-MEL-2
CCRF-CEM = tested on: CCRF-CEM
HOP-62 = tested on: HOP-62
SF-268 = tested on: SF-268
UACC-62 = tested on: UACC-62
U-251 = tested on: U-251
EKVX = tested on: EKVX
SF-295 = tested on: SF-295
TK-10 = tested on: TK-10
786-0 = tested on: 786-0
A498 = tested on: A498
HOP-92 = tested on: HOP-92
SK-OV-3 = tested on: SK-OV-3
IGROV-1 = tested on: IGROV-1
SNB-75 = tested on: SNB-75
NCI-H23 = tested on: NCI-H23
MDA-MB-435 = tested on: MDA-MB-435
NCI/ADR-RES = tested on: NCI/ADR-RES
SNB-19 = tested on: SNB-19
COLO 205 = tested on: COLO 205
RXF 393 = tested on: RXF 393

N#Cc1ccc(-c2ccc(Cl)cc2)n(C2OC(CO)C(O)C(O)C2O)c1=S (stereo not drawn)
GI50 (M14): > 100 µM (inactive) | GI50 (ACHN): > 100 µM (inactive) | GI50 (CAKI-1): > 100 µM (inactive) | GI50 (UACC-257): > 100 µM (inactive) | GI50 (SN12C): > 100 µM (inactive) | GI50 (OVCAR-3): > 100 µM (inactive) | GI50 (DU-145): > 100 µM (inactive) | GI50 (OVCAR-5): > 100 µM (inactive) | GI50 (LOX IMVI): > 100 µM (inactive) | GI50 (HCT-116): > 100 µM (inactive) and 86.1 µM (inactive) | GI50 (RPMI-8226): > 100 µM (inactive) | GI50 (SK-MEL-5): > 100 µM (inactive) and 98.6 µM (inactive) | GI50 (T47D): > 100 µM (inactive) | GI50 (OVCAR-8): > 100 µM (inactive) | GI50 (NCI-H226): > 100 µM (inactive) | GI50 (UO-31): > 100 µM (inactive) | GI50 (HCC 2998): > 100 µM (inactive) | GI50 (Hs-578T): > 100 µM (inactive) | GI50 (KM12): > 100 µM (inactive) | GI50 (MOLT-4): > 100 µM (inactive) | GI50 (K562): > 100 µM (inactive) | GI50 (SF-539): > 100 µM (inactive) | GI50 (SK-MEL-28): > 100 µM (inactive) | GI50 (HCT-15): > 100 µM | GI50 (A549): > 100 µM (inactive) | GI50 (Malme-3M): > 100 µM (inactive) | GI50 (MDA-MB-231): > 100 µM (inactive) | GI50 (MDA-N): > 100 µM (inactive) | GI50 (MCF7): 62.4 µM (inactive) | GI50 (NCI-H460): > 100 µM (inactive) and 86.5 µM (inactive) | GI50 (SR): > 100 µM (inactive) | GI50 (SW-620): > 100 µM (inactive) | GI50 (PC-3): > 100 µM (inactive) | GI50 (HT-29): > 100 µM (inactive) | GI50 (OVCAR-4): > 100 µM (inactive) | GI50 (HL-60): > 100 µM (inactive)

C#CC(O)/C=C/C(O)CCCC(O)CC#CC(O)C#CCCCCC(O)/C=C/CCCCCC(=O)CCCCCCCCCCCCCC(O)C(O)C#CC(=O)O (stereo not drawn)
GI50 (M14): > 25 µM (inactive) | GI50 (ACHN): > 25 µM (inactive) | GI50 (CAKI-1): > 25 µM (inactive) | GI50 (UACC-257): > 25 µM (inactive) | GI50 (SN12C): > 25 µM (inactive) | GI50 (DU-145): > 25 µM (inactive) | GI50 (NCI-H522): 4.88 µM (inactive) | GI50 (SK-MEL-2): > 25 µM (inactive) | GI50 (OVCAR-5): > 25 µM (inactive) | GI50 (LOX IMVI): 4.6 µM (inactive) | GI50 (CCRF-CEM): 6.81 µM (inactive) | GI50 (HCT-116): > 25 µM (inactive) | GI50 (HOP-62): > 25 µM (inactive) | GI50 (SF-268): > 25 µM (inactive) | GI50 (RPMI-8226): > 25 µM (inactive) | GI50 (UACC-62): > 25 µM (inactive) | GI50 (SK-MEL-5): > 25 µM (inactive) | GI50 (T47D): > 25 µM (inactive) | GI50 (OVCAR-8): > 25 µM (inactive) | GI50 (U-251): > 25 µM (inactive) | GI50 (EKVX): > 25 µM (inactive) | GI50 (NCI-H226): > 25 µM (inactive) | GI50 (SF-295): > 25 µM (inactive) | GI50 (TK-10): > 25 µM (inactive) | GI50 (UO-31): 11.5 µM (inactive) | GI50 (HCC 2998): > 25 µM (inactive) | GI50 (786-0): > 25 µM (inactive) | GI50 (A498): > 25 µM (inactive) | GI50 (HOP-92): > 25 µM (inactive) | GI50 (Hs-578T): > 25 µM (inactive) | GI50 (KM12): > 25 µM (inactive) | GI50 (MOLT-4): 12.8 µM (inactive) | GI50 (K562): > 25 µM (inactive) | GI50 (SK-MEL-28): > 25 µM (inactive) | GI50 (HCT-15): > 25 µM | GI50 (A549): > 25 µM (inactive) | GI50 (Malme-3M): > 25 µM (inactive) | GI50 (SK-OV-3): > 25 µM (inactive) | GI50 (IGROV-1): 4.13 µM (inactive) | GI50 (MDA-MB-231): > 25 µM (inactive) | GI50 (MDA-N): > 25 µM (inactive) | GI50 (MCF7): > 25 µM (inactive) | GI50 (SNB-75): > 25 µM (inactive) | GI50 (NCI-H23): > 25 µM (inactive) | GI50 (NCI-H460): > 25 µM (inactive) | GI50 (SR): 7.13 µM (inactive) | GI50 (PC-3): > 25 µM (inactive) | GI50 (MDA-MB-435): > 25 µM (inactive) | GI50 (HT-29): > 25 µM (inactive) | GI50 (NCI/ADR-RES): > 25 µM (inactive) | GI50 (SNB-19): > 25 µM (inactive) | GI50 (OVCAR-4): 15.8 µM (inactive) | GI50 (HL-60): > 25 µM (inactive) | GI50 (COLO 205): > 25 µM (inactive)

O=C(CCl)N1CCN(c2ccccn2)CC1
GI50 (M14): 16.6 µM (inactive) | GI50 (ACHN): 31.6 µM (inactive) | GI50 (CAKI-1): 19.3 µM (inactive) | GI50 (UACC-257): 30.3 µM (inactive) | GI50 (DU-145): > 100 µM (inactive) | GI50 (OVCAR-5): 20.7 µM (inactive) | GI50 (CCRF-CEM): 19.9 µM (inactive) | GI50 (HCT-116): 32.3 µM (inactive) | GI50 (HOP-62): 22.7 µM (inactive) | GI50 (SF-268): 23.6 µM (inactive) | GI50 (RPMI-8226): 31.8 µM (inactive) | GI50 (SK-MEL-5): 18.1 µM (inactive) | GI50 (T47D): 13.2 µM (inactive) | GI50 (OVCAR-8): 26.2 µM (inactive) | GI50 (U-251): 17.9 µM (inactive) | GI50 (EKVX): 26.9 µM (inactive) | GI50 (SF-295): > 10 µM (inactive) | GI50 (TK-10): 19.5 µM (inactive) | GI50 (UO-31): 21.8 µM (inactive) | GI50 (HCC 2998): 19.4 µM (inactive) | GI50 (786-0): 18.4 µM (inactive) | GI50 (A498): 17 µM (inactive) | GI50 (HOP-92): 21.3 µM (inactive) | GI50 (Hs-578T): 42.8 µM (inactive) | GI50 (KM12): 34.5 µM (inactive) | GI50 (MOLT-4): 31.7 µM (inactive) | GI50 (K562): 31.7 µM (inactive) | GI50 (SK-MEL-28): 20 µM (inactive) | GI50 (HCT-15): > 10 µM | GI50 (A549): > 10 µM (inactive) | GI50 (Malme-3M): 16.8 µM (inactive) | GI50 (SK-OV-3): 46.7 µM (inactive) | GI50 (IGROV-1): 21.3 µM (inactive) | GI50 (MDA-N): 25.2 µM (inactive) | GI50 (MCF7): 23.9 µM (inactive) | GI50 (SNB-75): > 10 µM (inactive) | GI50 (NCI-H23): 19.8 µM (inactive) | GI50 (NCI-H460): 19.3 µM (inactive) | GI50 (SR): 34.9 µM (inactive) | GI50 (RXF 393): 23.4 µM (inactive) | GI50 (SW-620): 23.8 µM (inactive) | GI50 (PC-3): > 100 µM (inactive) | GI50 (HT-29): 17.7 µM (inactive) | GI50 (NCI/ADR-RES): 27.2 µM (inactive) | GI50 (SNB-19): 57.1 µM (inactive) | GI50 (OVCAR-4): 15.6 µM (inactive) | GI50 (HL-60): 24.3 µM (inactive) | GI50 (COLO 205): 24.2 µM (inactive)

— ChEMBL document CHEMBL1201862, “PubChem BioAssay data set” (2004)
